Experimental data: ChEMBL document CHEMBL5143655, “Synthesis and biological evaluation of 1,2,4-triazole derivatives as potential Nrf2 activators for the treatment of cerebral ischemic injury” (Eur J Med Chem, 2022)
Calls of active or inactive are those of the source. No cut-off for these calls is given here.

Columns and labels:
Rattus norvegicus [1] = test: (§1) Neuroprotective activity in Sprague-Dawley rat model of middle cerebral artery occlusion-induced ischemia-reperfusion injury assessed as decrease in cerebral infarct volume at 10 mg/kg, ip preincubated for 1 hrs followed by MCAO operation and further incubated with compound for 4 hrs after reperfusion by TTC staining based assay; format: functional; parameters: scale not given: the % may be the effect or the level left; conditions: time 5 hrs
[2] = Clearence in Sprague-Dawley rat at 5 mg/kg, iv measured upto 24 hrs by LC-MS/MS analysis; format: ADME, organism-based; conditions: in vivo
[3] = Metabolic stability in human plasma assessed as parent compound remaining at 200 uM measured after 60 min by LC-MS/MS analysis relative to control; format: ADME, cell-free; conditions: read-out: Stability
[4] = molecular target: T1, Nuclear factor erythroid 2-related factor 2 (Rattus norvegicus) (UniProt O54968); test: Activation of Nrf2 pathway in rat PC-12 cells assessed as increase in GCLC level at 2.5 to 10 uM measured after 3 hrs by Western blot analysis; format: cell-based; conditions: filed as activator, dose 2.5-10 µM
T1 sequence (whole entry): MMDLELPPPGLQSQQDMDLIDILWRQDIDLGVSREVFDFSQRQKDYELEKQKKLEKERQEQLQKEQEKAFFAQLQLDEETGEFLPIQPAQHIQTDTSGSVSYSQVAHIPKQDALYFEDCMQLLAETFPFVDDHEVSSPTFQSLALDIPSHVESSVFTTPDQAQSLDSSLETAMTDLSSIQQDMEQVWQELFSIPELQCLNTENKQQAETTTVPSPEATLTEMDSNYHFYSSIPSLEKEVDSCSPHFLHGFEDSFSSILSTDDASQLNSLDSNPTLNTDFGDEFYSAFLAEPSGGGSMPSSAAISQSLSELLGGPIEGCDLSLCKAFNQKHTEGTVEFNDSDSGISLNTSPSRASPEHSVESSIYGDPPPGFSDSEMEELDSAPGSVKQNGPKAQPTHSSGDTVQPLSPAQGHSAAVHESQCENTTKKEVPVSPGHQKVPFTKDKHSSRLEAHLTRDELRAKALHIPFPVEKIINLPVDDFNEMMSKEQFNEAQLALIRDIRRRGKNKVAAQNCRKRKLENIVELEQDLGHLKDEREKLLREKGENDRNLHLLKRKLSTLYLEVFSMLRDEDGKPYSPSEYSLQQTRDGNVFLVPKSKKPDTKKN

[5] = Plasma protein binding in human plasma at 10 uM incubated for 6 hrs by LC-MS/MS based equilibrium dialysis method; format: ADME, cell-free; conditions: read-out: PPB (converted)
[6] = Cmax in Sprague-Dawley rat at 5 mg/kg, ip measured at 2 hrs by LC-MS/MS analysis; format: ADME, organism-based; parameters: dose 5 mg/kg, time 2 hrs, route ip; conditions: in vivo
[7] = Half life in Sprague-Dawley rat at 5 mg/kg, iv measured upto 24 hrs by LC-MS/MS analysis; format: ADME, organism-based; conditions: in vivo
[8] = AUC (0 to infinity) in Sprague-Dawley rat at 5 mg/kg, ip measured upto 24 hrs by LC-MS/MS analysis; format: ADME, organism-based; parameters: time < 24 hrs, dose 5 mg/kg, route ip; conditions: in vivo
PC-12 [9] = test: Cytoprotective activity against SNP - induced oxidative stress in rat PC-12 cells assessed as restoration of mitochondrial membrane potential at 10 uM preincubated for 2 hrs followed by SNP stimulation for 24 hrs by JC-1 staining based fluorescence microscopic analysis; format: functional, cell-based
[10] = Acute toxicity in BALB/c mouse assessed as survival rate at 175 mg/kg, ip measured after 7 days; format: organism-based; conditions: in vivo, 168 h, time 7 day
[11] = Acute toxicity in BALB/c mouse assessed as survival rate at 550 mg/kg, ip measured after 7 days; format: organism-based; conditions: in vivo, 168 h, time 7 day
PC-12 [12] = test: Neuroprotective activity against SNP induced rat PC-12 cells assessed as increase in cell viability at 1 uM preincubated for 2 hrs followed by SNP stimulation for 24 hrs by MTT assay relative to control; format: functional
[13] = molecular target: T1, Nuclear factor erythroid 2-related factor 2 (Rattus norvegicus); test: Activation of Nrf2 pathway in rat PC-12 cells assessed as increase in HO-1 level at 2.5 to 10 uM measured after 3 hrs by Western blot analysis; format: cell-based; conditions: filed as activator, dose 2.5-10 µM
[14] = molecular target: T1, Nuclear factor erythroid 2-related factor 2 (Rattus norvegicus); test: Activation of Nrf2 pathway in rat PC-12 cells assessed as reversal of ML385 induced inhibition of Nrf2 protein expression at 10 uM measured after 3 hrs in the presence of Nrf2 signalling inhibitor ML385 by Western blot analysis; format: cell-based; conditions: filed as activator
PC-12 [15] = test: (§2) Neuroprotective activity against SNP-induced apoptotic rat PC-12 cells assessed as restoration of cell morphology at 10 uM preincubated for 2 hrs followed by SNP stimulation for 24 hrs by Hoechst 33258 staining based fluorescence microscopic analysis; format: functional
Rattus norvegicus [16] = test: as §1, with “30” for “10”; format: functional; parameters: scale not given: the % may be the effect or the level left; conditions: time 5 hrs
[17] = Metabolic stability in human plasma assessed as parent compound remaining at 200 uM measured after 90 min by LC-MS/MS analysis relative to control; format: ADME, cell-free; conditions: read-out: Stability
[18] = MRT in Sprague-Dawley rat at 5 mg/kg, iv measured upto 24 hrs by LC-MS/MS analysis; format: ADME, organism-based; conditions: in vivo
[19] = Metabolic stability in human plasma assessed as parent compound remaining at 200 uM measured after 15 min by LC-MS/MS analysis relative to control; format: ADME, cell-free; conditions: read-out: Stability
PC-12 [20] = test: as §2, with “reduction in nuclear shrinkage by measuring the decrease in blue fluorescence signal” for “restoration of cell morphology”; format: functional, cell-based
[21] = molecular target: Voltage-gated inwardly rectifying potassium channel KCNH2 (Homo sapiens, UniProt Q12809); test: Inhibition of hERG channel expressed in HEK293 cells at -80 mV holding potential by automated patch clamp method; format: toxicity, cell-based
[22] = Tmax in Sprague-Dawley rat at 5 mg/kg, iv measured upto 24 hrs by LC-MS/MS analysis; format: ADME, organism-based; conditions: in vivo
[23] = Cmax in Sprague-Dawley rat at 5 mg/kg, iv measured upto 24 hrs by LC-MS/MS analysis; format: ADME, organism-based; parameters: dose 5 mg/kg, time < 24 hrs, route iv; conditions: in vivo
Rattus norvegicus [24] = test: Neuroprotective activity in Sprague-Dawley rat model of middle cerebral artery occlusion-induced ischemia-reperfusion injury assessed as attenuation of behavioral deficit at 30 mg/kg, ip preincubated for 1 hrs followed by MCAO operation and further incubated with compound for 4 hrs after reperfusion; format: functional; conditions: time 5 hrs
[25] = Acute toxicity in ip dosed BALB/c mouse assessed as lethal dose measured after 7 days; format: organism-based; conditions: in vivo, time 7 day
[26] = Acute toxicity in BALB/c mouse assessed as survival rate at 1000 mg/kg, ip measured after 7 days; format: organism-based; conditions: in vivo, 168 h, time 7 day
Rattus norvegicus [27] = test: Neuroprotective activity in Sprague-Dawley rat model of middle cerebral artery occlusion-induced ischemia reperfusion injury assessed as decrease in serum MDA level at 3 to 30 mg/kg, ip preincubated for 1 hrs followed by MCAO operation and further incubated with compound for 4 hrs after reperfusion; format: functional, organism-based; conditions: dose 3-30 mg/kg, time 5.0 hrs
[28] = Bioavailability in Sprague-Dawley rat at 5 mg/kg, ip measured upto 24 hrs by LC-MS/MS analysis; format: ADME, organism-based; conditions: in vivo
[29] = Metabolic stability in human plasma assessed as parent compound remaining at 200 uM measured after 120 min by LC-MS/MS analysis relative to control; format: ADME, cell-free; conditions: read-out: Stability
[30] = MRT in Sprague-Dawley rat at 5 mg/kg, ip measured upto 24 hrs by LC-MS/MS analysis; format: ADME, organism-based; conditions: in vivo
[31] = molecular target: T1, Nuclear factor erythroid 2-related factor 2 (Rattus norvegicus); test: Activation of Nrf2 pathway in rat PC-12 cells assessed as Nrf2 accumulation in nucleus measured after 3 hrs by Western blot analysis; format: cell-based; conditions: filed as activator, dose 2.5-10 µM, DDE = dose-dependent effect

Chain of Voltage-gated inwardly rectifying potassium channel KCNH2 (Q12809 whole entry): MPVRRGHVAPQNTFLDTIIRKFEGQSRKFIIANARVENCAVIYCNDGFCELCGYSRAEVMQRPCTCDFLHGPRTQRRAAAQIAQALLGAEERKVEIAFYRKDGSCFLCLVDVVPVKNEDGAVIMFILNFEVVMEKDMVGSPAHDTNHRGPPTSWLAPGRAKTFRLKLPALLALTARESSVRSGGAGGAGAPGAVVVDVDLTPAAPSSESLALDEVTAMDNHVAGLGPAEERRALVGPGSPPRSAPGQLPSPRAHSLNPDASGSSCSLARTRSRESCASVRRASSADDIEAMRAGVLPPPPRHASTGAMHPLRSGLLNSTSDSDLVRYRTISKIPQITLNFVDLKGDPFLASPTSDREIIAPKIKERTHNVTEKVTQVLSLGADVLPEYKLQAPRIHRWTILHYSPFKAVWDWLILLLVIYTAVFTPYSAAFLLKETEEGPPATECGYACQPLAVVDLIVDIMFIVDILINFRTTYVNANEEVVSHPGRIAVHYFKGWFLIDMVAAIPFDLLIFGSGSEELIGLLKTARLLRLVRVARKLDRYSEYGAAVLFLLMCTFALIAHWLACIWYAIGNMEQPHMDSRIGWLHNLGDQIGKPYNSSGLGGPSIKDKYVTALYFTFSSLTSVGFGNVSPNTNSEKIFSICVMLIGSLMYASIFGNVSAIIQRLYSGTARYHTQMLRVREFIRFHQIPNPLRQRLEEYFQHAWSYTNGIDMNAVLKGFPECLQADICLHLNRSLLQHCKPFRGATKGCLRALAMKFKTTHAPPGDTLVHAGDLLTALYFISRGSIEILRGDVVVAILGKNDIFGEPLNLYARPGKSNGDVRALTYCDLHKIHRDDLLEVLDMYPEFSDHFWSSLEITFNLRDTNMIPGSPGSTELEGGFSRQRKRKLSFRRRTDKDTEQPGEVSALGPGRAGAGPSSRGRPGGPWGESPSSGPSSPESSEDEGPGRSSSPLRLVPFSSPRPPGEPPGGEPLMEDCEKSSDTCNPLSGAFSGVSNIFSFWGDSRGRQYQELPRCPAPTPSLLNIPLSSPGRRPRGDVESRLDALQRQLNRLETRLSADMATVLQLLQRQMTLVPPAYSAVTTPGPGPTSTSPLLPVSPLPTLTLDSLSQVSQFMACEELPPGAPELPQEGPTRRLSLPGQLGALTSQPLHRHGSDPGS

SMILES: Cc1cc(C)cc(-n2nc(-c3ccc(C(F)(F)F)cc3O)nc2-c2ccccc2O)c1
- Activity (Rattus norvegicus [1]): 14.49%
- CL [2]: 0.0005 (mg/kg)/(ng/ml)/hr
- remaining at 1 h, 200 µM [3]: 90.7%
- Activity [4]: Active
- fraction unbound at 6 h, 10 µM [5]: 0.0006
- Cmax [6]: 323 ng/mL
- half-life [7]: 8.26 h
- AUC(0-inf) [8]: 2930 ng·h/mL
- Activity (PC-12 [9]): Active
- Activity [10]: Non-Toxic
- Activity [11]: Non-Toxic
- Activity (PC-12 [12]): 76.86%
- Activity [13]: Active
- Activity [14]: Active
- Activity (PC-12 [15]): Active
- Activity (Rattus norvegicus [16]): 12.23%
- remaining at 1.5 h, 200 µM [17]: 89.5%
- MRT [18]: 2.84 h
- remaining at 0.25 h, 200 µM [19]: 95.8%
- Activity (PC-12 [20]): Active
- IC50 [21]: > 30 µM
- Tmax [22]: 4.8 min
- Cmax [23]: 6910 ng/mL
- Activity (Rattus norvegicus [24]): 1.5
- LD50 at 168 h [25]: 789 mg/kg
- Activity [26]: Toxic
- Activity (Rattus norvegicus [27]): Active
- bioavailability [28]: 28.8%
- remaining at 2 h, 200 µM [29]: 88.9%
- MRT [30]: 16.5 h
- Activity [31]: Dde
